The values that follow come from patent US20070218456A1, “CELLULAR ASSAYS FOR SIGNALING RECEPTORS” (INVITROGEN CORPORATION, priority 2006, published 2007).

Series [1] deals with adenylyl cyclase. The experiment in a line: FACS forskolin response of T-REx-GPR23-CRE-bla-CHO-K1 pools. It counts as cell-based, Chinese hamster. The source says: (§1) The transfected and antibiotic selected T-REx™-CRE-bla-CHO-K1 and T-REx™-GPR23-CRE-bla-CHO-K1 clones were sorted for their responsiveness to forskolin. Forskolin activates adenylyl cyclase and results in increased intracellular cAMP concentrations which in turn lead to increased production of beta-lactamase from the CRE response element. Forskolin response of the T-REx™-CRE-bla-CHO-K1 and T-REx™-GPR23-CRE-bla-CHO-K1 pools were determine using FACS. […] In addition, there was an increase in the constitutively active cells in the human GPR23 containing cells as compared to the parental as indicated by the un-stimulated blue levels. The responsive clones were collected at one cell per well in 96 well tissue culture plates then expanded and tested for there responsiveness to LPA.

Series [2] concerns adenylyl cyclase. The experiment in a line: FACS forskolin response of T-REx-CRE-bla-CHO-K1 pool. The settings on record: T-REx-CRE-bla-CHO-K1 selected pool. Format: cell-based, Chinese hamster.
Source text: as §1

The test system of series [3] is T-REx™ G2A CRE-bla Freestyle™ 293F cells. The settings on record: selected pool; 24 h tetracycline stimulation. As for the experimental part:
(§2) In order to control the levels of G2A expression, G2A was placed under the control of an inducible promoter using Invitrogen's T-REx™ system. To again assess feasibility, pcDNA 5 G2A/TO was transiently transfected into CRE-bla Freestyle™ and NFAT-bla Freestyle™ cell lines stably expressing the T-REx™ Tet repressor plasmid (pcDNA6/TR; e.g., catalog# V1025-20, Invitrogen, Carlsbad, Calif.). The transfected cells were then treated with 10 ug/mL, 1 ug/mL, or 100 ng/mL tetracycline for 24 h to induce G2A expression. […] Stable pools of cells were created in both the TR CRE-bla and TR NFAT-bla Freestyle™293F backgrounds.
(§3) Stimulation Kinetics—Selected pools of both CRE-bla and NFAT-bla T-REx™ G2A Freestyle™ cells were stimulated with tetracycline for 3, 4, 5, or 24 h and loaded for 2 h with 1 μM LiveBLAzer™-FRET B/G substrate.

Series [4] relates to T-REx™-G2A-NFAT-bla Freestyle™293F cells. The experiment in a line: T-REx G2A NFAT-bla Freestyle 293F beta-lactamase reporter assay (inducer dose response). As for the experimental part: as §2, §3
To improve the balance between tetracycline-induced signaling and cell death by testing shorter induction times, lower tetracycline concentrations and altered culture conditions were utilized to promote cell health. A 16 h tetracycline stimulation time was attempted on the pools from the first sort. Cells were plated at 10,000 cells/well 24 hours prior to assay in DMEM+10% dFBS and incubated at 37° C./5% CO2 until time of assay. The cells were stimulated for 16 hours (e.g., overnight) with a dilution series of the tetracycline. Following stimulation, the cells were loaded for 2 hours at room temperature in the dark with LiveBLAzer™-FRET B/G loading solution containing 1 μM substrate. This assay was done in Poly-D-Lysine coated plates.
Since G2A has no known agonists, doxycycline and tetracycline were compared as inducers of the assay. An antibiotic selected pool of cells were plated at 10,000 cells/well 24 hours prior to assay in DMEM+10% dFBS and incubated at 37° C./5% CO2 until time of assay. The cells were stimulated with a dilution series of each compound for 16 hours at 37° C./5% CO2 and loaded for 2 hours at room temperature in the dark with LiveBLAzer™-FRET B/G loading solution containing 1 μM substrate.
Cell Density/well—The influence of cell-plating density on assay performance was tested to find the density giving the best response and Z′ while maintaining the expected pharmacology. Cells were plated 24 hours prior to the assay at the densities indicated in FIG. 14 in DMEM+10% dFBS and incubated at 37° C./5% CO2 until the time of assay. The cells were stimulated for 16 hours at 37° C./5% CO2 with a dilution series of the doxycycline. After incubation, the cells were loaded for 2 hours at room temperature in the dark with LiveBLAzer™-FRET B/G loading solution containing 1 μM substrate.
DMSO Tolerance—Tests were performed related to assay performance as a function of DMSO concentration to determine the robustness of the assay to the range of DMSO challenge routinely encountered during high-throughput screening. Dose response curves were performed in the presence of 0%, 0.25%, 0.5%, or 1% DMSO. Cells were plated at 10,000 cells/well 24 hours prior to assay in DMEM+10% dFBS and incubated at 37° C./5% CO2 until time of assay. After incubation, DMSO was added to the wells to final concentrations of 0%, 0.25%, 0.5% and 1% DMSO. The cells were stimulated for 16 hours with a dilution series of the doxycycline. Following stimulation, the cells were loaded for 2 hours at room temperature in the dark with LiveBLAzer™-FRET B/G loading solution containing 1 μM substrate.
The substrate loading times were varied to find the time for an optimal assay performance. Cells were plated at 10,000 cells/well 24 hours prior to assay in DMEM+10% dFBS and incubated at 37° C./5% CO2 until time of assay. After incubation, DMSO was added to the wells to final concentration of 0.5%.

Series [5] concerns T-REx™-GPR23-CRE-bla-CHO-K1 clone H6-E2. The experiment in a line: T-REx-GPR23-CRE-bla-CHO-K1 clone H6-E2 beta-lactamase reporter assay (induction). It counts as cell-based, Chinese hamster. The settings on record: Clone H6-E2; 1 μg/ml tetracycline, 16 hrs. The procedure:
Six clones selected for further testing were expanded and retested for their inducible GPR23 specific activity. The clones were plated at 25,000 cells per well in a 96 well black walled clear bottom tissue culture assay plate. The plates were than placed at 37° C. 5% CO2 for 24 hrs to allow the cells to attach to the assay plate. The complete media was then removed from the plate and replaced with assay media (DMEM+0.1% BSA) containing 100 ng/ml pertussis toxin with or without 1 μg/ml tetracycline. The plates were placed at 37° C. 5% CO2 for 16 hrs to allow the induced expression of the GPR23 receptor. The cells were then loaded with LiveBLAzer™-FRET B/G substrate (2 μM) containing solution D for 2 hrs. To determine the optimal cell density for this assay the cells were plated at 2,500, 5,000, 10,000, and 20,000 cells per well in a 384 well black walled clear bottom tissue culture assay plate in complete media (DMEM+10% FBS). The plates were than placed at 37° C. 5% CO2 for 24 hrs to allow the cells to attach to the assay plate. The complete media was then removed from the plate and replaced with assay media (DMEM+0.1% BSA) containing 100 ng/ml pertussis toxin and a four fold dilution series of doxycycline starting at 1 μg/ml. The plates were placed at 37° C./5% CO2 for 16 hrs to allow the induced expression of the GPR23 receptor. The cells were then loaded with LiveBLAzer™-FRET B/G substrate (2 μM) containing solution D for 2 hrs. The cells were plated at 20,000 cells per well in a 384 well black walled clear bottom tissue culture assay plate in complete media (DMEM+10% FBS). The plates were then placed at 37° C. 5% CO2 for 6 hrs to allow the cells to attach to the assay plate. The complete media was then removed from the plate and replaced with assay media (DMEM+0.1% BSA) containing 100 ng/ml pertussis toxin, 0%, 0.25%, 0.5%, or 1.0% DMSO, and a three fold dilution series of doxycycline starting at 1 μg/ml. The plates were placed at 37° C./5% CO2 for 16 hrs to allow the induced expression of the GPR23 receptor. The cells were then loaded with LiveBLAzer™-FRET B/G substrate (2 μM) containing solution D for 2 hrs. The cells were plated at 20,000 cells per well in a 384 well black walled clear bottom tissue culture assay plate in complete media (DMEM+10% FBS). The plates were than placed at 37° C. 5% CO2 for 6 hrs to allow the cells to attach to the assay plate. The complete media was then removed from the plate and replaced with assay media (DMEM+0.1% BSA) containing 100 ng/ml pertussis toxin, 0.5% DMSO, and a three fold dilution series of doxycycline starting at 1 μg/ml. The plates were placed at 37° C. 5% CO2 for 16, 20 or 24 hrs to allow the induced expression of the GPR23 receptor. The cells were then loaded with LiveBLAzer™-FRET B/G substrate (2 μM) containing solution D for 2 hrs. Dose response of T-REx-GPR23-CRE-bla CHO-K1 cells to Doxycycline. T-REx-GPR23-CRE-bla CHO-K1 cells were plated in Growth Media (+) and allowed to attach to the tissue culture plate for 6 hrs. They were then induced for GPR23 expression overnight with doxycycline for 16 hrs in Assay Media. Cells were then loaded with LiveBLAzer™-FRET B/G Substrate (CCF4-AM) for 2 hours. Fluorescence emission values at 460 nm and 530 nm were obtained using a standard florescence plate reader and the Blue/Green Emission Ratios were plotted against the indicated concentrations of doxycycline (FIG. 40).

≈ marks a conversion by molar mass, not a printed value.

On to `C=C[C@@]1(C)CC(=O)[C@]2(O)[C@@]3(C)[C@@H](O)CCC(C)(C)[C@@H]3[C@H](O)[C@H](OC(C)=O)[C@@]2(C)O1` [Forskolin], for which the entries for the “increase in the "Blue" gate, stimulated verses un-stimulated” value with adenylyl cyclase [1] (T-REx-GPR23-CRE-bla-CHO-K1 E1) and in the series with adenylyl cyclase [1] (T-REx-GPR23-CRE-bla-CHO-K1 H6) were about 20% and about 21.1%, respectively. Further, the “increase in the percentage of cells in the "Blue" (responding) gate, stimulated verses un-stimulated” value in the series on adenylyl cyclase [2] is listed as about 10.7%.

Regarding `CN(C)[C@@H]1C(O)=C(C(N)=O)C(=O)[C@@]2(O)C(O)=C3C(=O)c4c(O)cccc4[C@@](C)(O)[C@H]3C[C@@H]12` [Tetracycline], the cell death entry in series [3] is reported as “substantial cell death”; in series [4] (selected pool, 24 h tetracycline stimulation), “substantial cell death”. In addition, the EC50 in series [4] (Homo sapiens, FreeStyle 293-F, antibiotic selected pool, 10,000 cells/well, 16 h stimulation, 2 h loading) was found to be 0.046 µg/mL (≈ 0.104 µM). In series [4] (antibiotic selected pool, 10,000 cells/well, 16 h stimulation), the “RR (Max)” value is listed as 3.1. Moreover, in series [5], the “inducible response (induced versus uninduced)” value is “about 9.2 fold”.
